Data on 6 compounds can be found in US8637681B2, “Pyrrolyl substituted dihydroindol-2-one derivatives, preparation methods and uses thereof” (Qilu Pharmaceutical Co., Ltd., priority 2010, dated 2014).

Series [1] concerns arterial ring angiogenesis in rats. In words: Inhibitory actions on arterial ring angiogenesis in rats. It counts as cell-based. The settings on record: Rattus norvegicus, area covered by micrangiums vs control well, read-out: Inhibitory rate (%); for inhibition at 0.2 µg/mL: 0.2 μg/ml; for inhibition at 1 µg/mL: 1 μg/ml; for inhibition at 5 µg/mL: 5 μg/ml. On the procedure:
This experiment was conducted by referring to the method described by R. F. Nicosia et al (Nicosia, R. F., et al. Am J Pathol., 1997, 151, 1379-1386). Rats were executed by cervical dislocation. The thoracic aorta was carefully separated, and placed in a container with physiological saline. The excess tissues were carefully cut off. The blood vessels were cut with a pair of ophthalmic scissors to form 1 mm thick vascular ring slices. To a pre-cooled 96-well cell culture plate, one separated vascular ring was placed in the center of each well. 70 μl of pre-molten Matrigel was carefully added to cover the vascular ring, which was incubated at 37° C. for 1 h so as to solidify it. […] The sample was placed in incubator for conventional culture, and each compound was tested at least in two repeated wells, and each test was repeated twice. […] The fresh culture medium was replaced every 3 days, and the drug was changed at the same time. The survival status of vascular rings was observed under microscope, and pictures were taken at the same time. Image Pro Plus software was used to calculate the area covered by micrangiums. The average inhibition rate was calculated by using the formula: inhibition rate (%)=(area of control well−area of drug well)/area of control well×100%.

Series [2] can be described thus: Cytotoxicity test (SRB), Hela. It counts as cell-based. The settings on record: human, Hela cervical cancer cells. On the procedure: Cytotoxicity of the compounds of the present invention was tested with human non-small cell lung cancer cells A549, human cervical cancer Hela cells, human skin cancer cells A431. The test was performed by referring to the method described by Rusnak et al (Rusnak D. W., et al., Cell Prolif., 2007, 40, 580-94). […] Trypsin/ethylenediamine tetraacetic acid (EDTA) were used to harvest cells in cell culture bottle. The cells were added to a 96-well cell culture plate, 4000/well (0.1 ml medium), adhering wall overnight, 0.1 ml of the diluted solution of the compounds to be tested was added, the final concentration of DMSO was 0.25%. The cell culture plate was incubated at 37° C., 5% CO2 conditions for 72 h. […] The absorption at a wavelength of 540 nm was measured. The IC50 (μM) of the compound was calculated using Logit method.

Series [3] is described as follows: Cytotoxicity test (SRB), A431. It counts as cell-based. To be noted: human, A431 skin cancer cells. On the procedure:
(§1) Cytotoxicity of the compounds of the present invention was tested with human non-small cell lung cancer cells A549, human cervical cancer Hela cells, human skin cancer cells A431. The test was performed by referring to the method described by Rusnak et al (Rusnak D. W., et al., Cell Prolif., 2007, 40, 580-94).
(§2) In Dulbecco's Modified Eagle Medium (DMEM) comprising 10% fetal bovine serum, 2 mM glutamine and non-essential amino acids, cells were cultured at 37° C. in 5% CO2 cell incubator. Trypsin/ethylenediamine tetraacetic acid (EDTA) were used to harvest cells in cell culture bottle. The cells were added to a 96-well cell culture plate, 4000/well (0.1 ml medium), adhering wall overnight, 0.1 ml of the diluted solution of the compounds to be tested was added, the final concentration of DMSO was 0.25%. The cell culture plate was incubated at 37° C., 5% CO2 conditions for 72 h. The change of cellular morphology was observed under microscope, and then 50 μl of 50% (mass/volume) trichloroacetic acid (TCA) was added to each well to fix cells. The final concentration of TCA was 10%. It stood for 5 min, than was placed in 4° C. refrigerator for 1 h, the wells of the culture plate were washed with deionized water for 5 times to remove TCA, drained, dried in air until no wet trace was observed. 100 μl of 0.4% (mass/volume) SRB was added to each well, stood at room temperature for 10 min. The liquid in each well was discarded, and then the wells were washed with 1% acetic acid for 5 times, dried in air, extracted with 150 μl of 10 mM Tris base (trihydroxymethylaminomethane, pH 10.5). The absorption at a wavelength of 540 nm was measured. The IC50 (μM) of the compound was calculated using Logit method.

Series [4] can be described thus: Cytotoxicity test (SRB), A549. The format is cell-based. The settings on record: human, A549 non-small cell lung cancer cells. On the procedure:
as §1, §2

Series [5] deals with human colon cancer HT 29 transplanted tumor. Nature of the series: Nude mice transplanted tumor test. It counts as in vivo, female Balb/cA nude mice. Also on record: key to d21 Vave ± SD (average tumor volume): tumor volume TV = ½×a×b² (a, b = major, minor diameter), in mm³. The settings on record: for Dead animal number / inhibition in vivo at 80 mg/kg / d21 Wave ± SD (average bodyweight of nude mice) / d21 Vave ± SD (average tumor volume) / d21 RTV ± SD (relative tumor volume): 80 mg/kg intragastrically each day for 20 days; for Dead animal number: dead/total animals; for inhibition in vivo at 80 mg/kg: Mus musculus, HT-29, po, 504 h, (1−T/C)×100%, read-out: Tumor inhibition rate d21 (%); for inhibition in vivo at 80 mg/kg / d21 Wave ± SD (average bodyweight of nude mice) / d21 Vave ± SD (average tumor volume) / d21 RTV ± SD (relative tumor volume): d21; for d0 Wave ± SD (average bodyweight of nude mice): d0, at grouping before administration (baseline); for d21 Vave ± SD (average tumor volume): HT 29 in nude mice; for d21 RTV ± SD (relative tumor volume): RTV=Vt/V0; for Activity of inhibiting HT-29 transplanted tumor in vivo (in words): 80 mg/kg, compared with positive control Sunitinib. On the procedure: The nude mice transplanted tumor test used female Balb/cA nude mice, and tumor strains were human colon cancer HT 29 strains.
Under sterile condition, eugonic tumor tissues stage were cut into pieces of about 1.5 mm^3, and inoculated at right axillary fossa of the nude mice. The transplanted tumor diameter was measured by vernier caliper, and the animals were randomly grouped after the tumors grew to about 120 mm^3. The positive control group and the compounds group in a dosage of 80 mg/kg were administered intragastrically each day for consecutive 20 days. The negative control group was given equivalent amount of injection water containing 0.1% Tween 80. Tumor diameters and the bodyweight of mice were measured 2-3 times every week. The evaluation indexes observed in the test include relative tumor proliferation rate, bodyweight and general states. The formulation for calculating tumor volume (TV) is: TV=½×a×b^2, wherein a, b represent major diameter and minor diameter of tumor; Relative tumor volume (RTV) was calculated according the results of measurement by the following formula: RTV=Vt/V0, wherein V0 is tumor volume measured when dividing groups for administration, and Vt is tumor volume measured after each administration.

For the compound `Cc1[nH]c(/C=C2\C(=O)Nc3ccc(F)cc32)c(C)c1NC(=O)CCCN(C)C` [Compound 5, N-{5-[5-fluoro-2-oxo-1,2-dihydro-indol-(3Z)-ylidenemethyl]-2,4-dimethyl-1H-pyrrol-3-yl}-4-(N,N-dimethylamino)butyramide], in series [1], the inhibition at 0.2 µg/mL is 93%, the inhibition at 1 µg/mL was determined as 100% and the inhibition at 5 µg/mL was 100%. This compound showed an IC50 at 72 h in series [2] of more than 30 µM. Moreover, in series [3], the IC50 at 72 h is more than 30 µM. The IC50 at 72 h in series [4] was more than 30 µM. Besides, in series [5], the Dead animal number was 0/6, the inhibition in vivo at 80 mg/kg was 86.6%, the “d0 Wave ± SD (average bodyweight of nude mice)” value (“d0 Wave ± SD” below) worked out at 18.9 ± 1.00 and the “d21 Wave ± SD (average bodyweight of nude mice)” value (shortened to “d21 Wave ± SD”) turned out to be 18.6 ± 0.87. Besides, in series [5], the “d21 RTV ± SD (relative tumor volume)” value came out at 0.96 ± 0.42. For the same compound, the “d21 Vave ± SD (average tumor volume)” value in series [5] (in mm³ (unit assumed)) is given as 111.8 ± 28.2.
Take `CCN(CC)CCC(=O)Nc1c(C)[nH]c(/C=C2\C(=O)Nc3ccc(NS(C)(=O)=O)cc32)c1C` [Compound 8, N-{5-[5-methylsulfonylamino-2-oxo-1,2-dihydro-indol-(3Z)-ylidenemethyl]-2,4-dimethyl-1H-pyrrol-3-yl}-3-(N,N-diethylamino)propionamide]: in series [1], the inhibition at 0.2 µg/mL was determined as 94%, the inhibition at 1 µg/mL was determined as 100% and the inhibition at 5 µg/mL came to 100%. The compound further gave an IC50 at 72 h in series [2] of more than 30 µM. This compound also returned a 50% inhibitory concentration (IC50) at 72 h in series [3] of more than 30 µM. This compound also returned an IC50 at 72 h in series [4] of more than 30 µM. Also, in series [5], the Dead animal number is reported as 0/6, the inhibition in vivo at 80 mg/kg was 78.9%, the “d0 Wave ± SD” value amounted to 19.2 ± 0.32 and the “d21 Wave ± SD” value is on record as 17.8 ± 0.65. Also, in series [5], the “d21 RTV ± SD (relative tumor volume)” value is listed as 1.52 ± 0.56. Besides, the “d21 Vave ± SD (average tumor volume)” value in series [5] (in mm³ (unit assumed)) was 186.0 ± 53.1.
Consider `CCN1CCN(CCC(=O)Nc2c(C)[nH]c(/C=C3\C(=O)Nc4ccc(F)cc43)c2C)CC1` [Compound 10, N-{5-[5-fluoro-2-oxo-1,2-dihydro-indol-(3Z)-ylidenemethyl]-2,4-dimethyl-1H-pyrrol-3-yl}-3-(4-ethylpiperazin-1-yl)propionamide], for which, in series [1], the inhibition at 0.2 µg/mL amounted to 98%, the inhibition at 1 µg/mL was found to be 100% and the inhibition at 5 µg/mL came out at 100%. In series [2], this compound had an IC50 at 72 h of more than 30 µM. Also, in series [3], the IC50 at 72 h is more than 30 µM. The compound further yielded an IC50 at 72 h in series [4] of more than 30 µM. Further, in series [5], the Dead animal number is 0/6, the “Activity of inhibiting HT-29 transplanted tumor in vivo (in words)” value was “inhibitory activity comparable to the positive control Sunitinib”, the inhibition in vivo at 80 mg/kg was 86.4% and the “d0 Wave ± SD” value was found to be 18.7 ± 1.10. Also, in series [5], the “d21 Wave ± SD” value came out at 18.9 ± 0.97 and the “d21 RTV ± SD (relative tumor volume)” value is recorded as 0.98 ± 0.34. Also, the “d21 Vave ± SD (average tumor volume)” value in series [5] (in mm³ (unit assumed)) was 112.8 ± 36.4.
For `Cc1[nH]c(/C=C2\C(=O)Nc3ccc(F)cc32)c(C)c1NC(=O)CCN1CCN(C)CC1` [Compound 11, N-{5-[5-fluoro-2-oxo-1,2-dihydro-indol-(3Z)-ylidenemethyl]-2,4-dimethyl-1H-pyrrol-3-yl}-3-(4-methylpiperazin-1-yl)propionamide], in series [1], the inhibition at 0.2 µg/mL amounted to 99%, the inhibition at 1 µg/mL came out at 100% and the inhibition at 5 µg/mL was 100%. In series [2], this compound registered an IC50 at 72 h of more than 30 µM. In series [3], this compound gave an IC50 at 72 h of more than 30 µM. Moreover, in series [4], the IC50 at 72 h is more than 30 µM. In series [5], the Dead animal number was 0/6, the “Activity of inhibiting HT-29 transplanted tumor in vivo (in words)” value is given as “inhibitory activity comparable to the positive control Sunitinib”, the inhibition in vivo at 80 mg/kg turned out to be 88.5% and the “d0 Wave ± SD” value is recorded as 18.5 ± 0.55. In series [5], the “d21 Wave ± SD” value was determined as 20.5 ± 0.49 and the “d21 RTV ± SD (relative tumor volume)” value worked out at 0.83 ± 0.52. In addition, the “d21 Vave ± SD (average tumor volume)” value in series [5] (in mm³ (unit assumed)) is listed as 96.7 ± 35.4.
Take `Cc1[nH]c(/C=C2\C(=O)Nc3ccc(F)cc32)c(C)c1NC(=O)CN1CCCCC1` [Compound 16, N-{5-[5-fluoro-2-oxo-1,2-dihydro-indol-(3Z)-ylidenemethyl]-2,4-dimethyl-1H-pyrrol-3-yl}-2-(piperidin-1-yl)acetamide]: in series [1], the inhibition at 0.2 µg/mL is 91%, the inhibition at 1 µg/mL was 100% and the inhibition at 5 µg/mL stood at 100%. In series [2], this compound showed an IC50 at 72 h of more than 30 µM. For the same compound, the IC50 at 72 h in series [3] came out at 6.25 µM. Further, in series [4], the IC50 at 72 h is more than 30 µM. In series [5], the Dead animal number is 0/6, the inhibition in vivo at 80 mg/kg turned out to be 68.7%, the “d0 Wave ± SD” value was 19.5 ± 0.46 and the “d21 Wave ± SD” value was determined as 18.5 ± 0.59. Moreover, the “d21 RTV ± SD (relative tumor volume)” value in series [5] is recorded as 2.25 ± 0.37. The “d21 Vave ± SD (average tumor volume)” value in series [5] (in mm³ (unit assumed)) is 268.4 ± 33.8.
`Cc1[nH]c(/C=C2\C(=O)Nc3ccc(F)cc32)c(C)c1NC(=O)CN1CCCC1` [Compound 17, N-{5-[5-fluoro-2-oxo-1,2-dihydro-indol-(3Z)-ylidenemethyl]-2,4-dimethyl-1H-pyrrol-3-yl}-2-(tetrahydropyrrol-1-yl)acetamide]: in series [1], the inhibition at 0.2 µg/mL is 89%, the inhibition at 1 µg/mL came to 100% and the inhibition at 5 µg/mL amounted to 100%. This compound also showed an IC50 at 72 h in series [2] of more than 30 µM. In series [3], this compound gave an IC50 at 72 h of more than 30 µM. The same compound displayed an IC50 at 72 h in series [4] of more than 30 µM. Further, in series [5], the Dead animal number was 0/6, the inhibition in vivo at 80 mg/kg was determined as 63.5%, the “d0 Wave ± SD” value turned out to be 18.9 ± 0.58 and the “d21 Wave ± SD” value came to 19.2 ± 0.82. Further, in series [5], the “d21 Vave ± SD (average tumor volume)” value turned out to be 324.5 ± 39.4 and the “d21 RTV ± SD (relative tumor volume)” value came out at 2.63 ± 0.53.
